Measured values as given in BindingDB's records for doi:10.1002/cbic.200400108 (Schering, 2005).
pIC50: −log10 of the molar value. Where “and” joins values, the source holds several entries; their conditions need not be identical. Equal values may be shown once.

Tests used:
Test in all cases: Inhibition Assay
[1] = target: Cyclin-dependent kinase 2 (Homo sapiens, UniProt P24941); details: pH 8; 22 °C
From the text: (§1) Inhibition assay using CDK and selective kinases such as gsk3, EGFR, c-Kit, InsR and KDR.

[2] = target: Epidermal growth factor receptor (Homo sapiens, UniProt P00533); details: pH 7; 22 °C
Sequence of Epidermal growth factor receptor (P00533 whole entry): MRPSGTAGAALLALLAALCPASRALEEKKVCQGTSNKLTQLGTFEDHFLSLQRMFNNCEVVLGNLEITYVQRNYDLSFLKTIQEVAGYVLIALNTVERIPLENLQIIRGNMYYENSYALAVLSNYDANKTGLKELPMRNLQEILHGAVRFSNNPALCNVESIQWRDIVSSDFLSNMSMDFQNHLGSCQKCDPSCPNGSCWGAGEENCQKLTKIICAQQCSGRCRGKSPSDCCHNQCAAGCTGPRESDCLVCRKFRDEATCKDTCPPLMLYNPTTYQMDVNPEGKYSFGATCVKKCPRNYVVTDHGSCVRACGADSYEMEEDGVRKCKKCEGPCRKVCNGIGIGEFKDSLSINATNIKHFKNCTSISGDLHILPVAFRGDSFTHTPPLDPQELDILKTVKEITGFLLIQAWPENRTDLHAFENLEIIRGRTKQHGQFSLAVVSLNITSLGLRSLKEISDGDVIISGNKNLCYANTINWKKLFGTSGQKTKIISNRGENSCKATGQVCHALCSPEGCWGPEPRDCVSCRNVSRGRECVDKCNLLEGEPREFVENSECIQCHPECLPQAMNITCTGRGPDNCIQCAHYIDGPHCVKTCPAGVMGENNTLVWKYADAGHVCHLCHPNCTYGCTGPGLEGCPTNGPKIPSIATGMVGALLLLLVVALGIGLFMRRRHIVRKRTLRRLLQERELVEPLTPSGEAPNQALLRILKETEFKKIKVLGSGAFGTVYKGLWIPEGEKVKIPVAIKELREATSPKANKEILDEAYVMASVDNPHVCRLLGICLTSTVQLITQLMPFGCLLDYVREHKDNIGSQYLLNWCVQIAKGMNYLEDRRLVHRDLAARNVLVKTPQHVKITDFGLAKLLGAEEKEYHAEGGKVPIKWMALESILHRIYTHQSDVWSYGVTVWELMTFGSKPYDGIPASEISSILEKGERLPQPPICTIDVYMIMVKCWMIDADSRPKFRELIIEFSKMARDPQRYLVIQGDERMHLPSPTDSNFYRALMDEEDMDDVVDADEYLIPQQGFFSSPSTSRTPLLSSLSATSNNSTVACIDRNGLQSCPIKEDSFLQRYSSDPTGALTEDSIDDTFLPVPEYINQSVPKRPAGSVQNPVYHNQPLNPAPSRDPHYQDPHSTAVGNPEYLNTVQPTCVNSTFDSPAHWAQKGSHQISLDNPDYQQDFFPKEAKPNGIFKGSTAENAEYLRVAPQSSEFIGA
From the text: as §1

Insulin receptor = Insulin receptor (Homo sapiens, UniProt P06213); details: pH 7.5; 22 °C
Sequence of Insulin receptor (P06213 28-758 limits assumed): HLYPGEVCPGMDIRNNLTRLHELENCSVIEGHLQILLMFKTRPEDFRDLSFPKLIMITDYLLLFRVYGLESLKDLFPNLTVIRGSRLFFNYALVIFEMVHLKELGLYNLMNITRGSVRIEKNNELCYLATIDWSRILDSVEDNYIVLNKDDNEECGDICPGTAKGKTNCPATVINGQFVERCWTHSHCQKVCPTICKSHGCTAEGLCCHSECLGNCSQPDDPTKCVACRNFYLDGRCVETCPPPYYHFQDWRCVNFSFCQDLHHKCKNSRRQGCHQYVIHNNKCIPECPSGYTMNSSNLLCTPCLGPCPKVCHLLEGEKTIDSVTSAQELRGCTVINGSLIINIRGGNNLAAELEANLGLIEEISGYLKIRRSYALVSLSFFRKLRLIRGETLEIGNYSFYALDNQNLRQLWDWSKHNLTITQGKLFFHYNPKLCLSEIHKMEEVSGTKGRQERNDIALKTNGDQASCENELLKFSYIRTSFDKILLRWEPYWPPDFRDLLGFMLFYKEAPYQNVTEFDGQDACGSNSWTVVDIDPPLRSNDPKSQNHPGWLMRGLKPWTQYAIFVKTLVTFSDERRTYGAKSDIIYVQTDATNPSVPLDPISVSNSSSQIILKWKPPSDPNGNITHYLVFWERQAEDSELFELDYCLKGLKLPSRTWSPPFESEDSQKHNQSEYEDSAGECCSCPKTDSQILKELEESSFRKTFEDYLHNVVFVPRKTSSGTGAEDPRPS
Sequence of Insulin receptor (P06213 763-1382 limits assumed): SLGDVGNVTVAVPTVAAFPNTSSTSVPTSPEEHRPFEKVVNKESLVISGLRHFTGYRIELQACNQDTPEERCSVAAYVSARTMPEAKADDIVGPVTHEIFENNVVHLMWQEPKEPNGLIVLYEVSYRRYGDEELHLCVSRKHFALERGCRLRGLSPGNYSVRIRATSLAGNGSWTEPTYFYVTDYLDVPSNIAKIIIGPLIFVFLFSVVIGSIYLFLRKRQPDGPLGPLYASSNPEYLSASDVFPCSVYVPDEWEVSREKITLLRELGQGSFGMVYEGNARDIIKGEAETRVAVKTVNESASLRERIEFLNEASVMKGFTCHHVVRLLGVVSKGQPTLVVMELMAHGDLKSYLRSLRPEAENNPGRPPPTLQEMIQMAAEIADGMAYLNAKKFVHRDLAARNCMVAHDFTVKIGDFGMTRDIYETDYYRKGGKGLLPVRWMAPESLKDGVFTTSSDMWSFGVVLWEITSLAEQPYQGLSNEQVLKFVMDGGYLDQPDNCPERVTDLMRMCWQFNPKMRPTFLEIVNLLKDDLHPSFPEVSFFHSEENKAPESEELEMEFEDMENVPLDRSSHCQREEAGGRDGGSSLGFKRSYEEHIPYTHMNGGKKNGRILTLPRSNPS
From the text: as §1

[3] = target: Vascular endothelial growth factor receptor 2 (Homo sapiens, UniProt P35968); details: pH 7; 22 °C
Sequence of Vascular endothelial growth factor receptor 2 (P35968 whole entry): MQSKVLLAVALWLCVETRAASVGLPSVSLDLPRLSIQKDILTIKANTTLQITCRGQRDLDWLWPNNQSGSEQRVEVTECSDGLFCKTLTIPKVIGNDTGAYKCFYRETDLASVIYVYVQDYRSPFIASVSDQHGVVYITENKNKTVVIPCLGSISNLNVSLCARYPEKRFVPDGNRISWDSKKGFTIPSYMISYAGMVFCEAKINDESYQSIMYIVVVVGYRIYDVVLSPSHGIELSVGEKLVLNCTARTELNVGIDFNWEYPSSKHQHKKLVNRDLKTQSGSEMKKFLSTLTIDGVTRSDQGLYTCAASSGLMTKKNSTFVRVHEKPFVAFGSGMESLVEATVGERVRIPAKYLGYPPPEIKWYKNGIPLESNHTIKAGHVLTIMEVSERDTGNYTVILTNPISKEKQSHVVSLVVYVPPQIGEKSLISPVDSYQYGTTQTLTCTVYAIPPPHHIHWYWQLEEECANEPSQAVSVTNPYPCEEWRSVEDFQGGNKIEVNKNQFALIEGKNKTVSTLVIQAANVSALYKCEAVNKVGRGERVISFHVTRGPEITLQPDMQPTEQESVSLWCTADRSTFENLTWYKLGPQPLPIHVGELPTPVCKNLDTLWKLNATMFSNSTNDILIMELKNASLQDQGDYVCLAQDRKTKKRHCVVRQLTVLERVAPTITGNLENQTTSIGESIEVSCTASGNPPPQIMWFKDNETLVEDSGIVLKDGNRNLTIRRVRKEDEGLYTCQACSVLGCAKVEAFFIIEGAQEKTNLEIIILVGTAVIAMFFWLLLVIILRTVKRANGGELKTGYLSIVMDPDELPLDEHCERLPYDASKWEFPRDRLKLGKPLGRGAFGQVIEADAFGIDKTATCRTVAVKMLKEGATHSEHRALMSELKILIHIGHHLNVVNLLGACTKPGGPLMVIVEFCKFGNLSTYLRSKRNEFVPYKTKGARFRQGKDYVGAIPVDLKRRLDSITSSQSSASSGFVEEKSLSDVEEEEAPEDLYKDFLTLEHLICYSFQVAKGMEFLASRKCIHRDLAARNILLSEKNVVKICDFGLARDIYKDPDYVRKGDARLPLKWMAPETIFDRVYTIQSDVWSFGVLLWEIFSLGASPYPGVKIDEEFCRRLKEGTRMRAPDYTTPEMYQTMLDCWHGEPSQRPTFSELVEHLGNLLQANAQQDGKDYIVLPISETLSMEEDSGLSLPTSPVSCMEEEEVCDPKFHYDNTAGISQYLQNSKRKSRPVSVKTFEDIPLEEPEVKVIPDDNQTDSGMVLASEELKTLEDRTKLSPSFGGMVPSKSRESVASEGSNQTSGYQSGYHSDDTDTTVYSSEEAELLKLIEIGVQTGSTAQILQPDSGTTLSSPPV
From the text: as §1

Compound | pIC50 [1] | pIC50 [2] | pIC50 (Insulin receptor) | pIC50 [3]
CN(C)S(=O)(=O)c1ccc2c(c1)C(C1=Nc3ccccc3C1(O)C(O)CO)C(=O)N2 (stereo unspecified) [Indirubin derivative, 31b] | 5.52 and < 5.00 | – | – | –
O=C1Nc2ccc(S(=O)(=O)O)cc2C1=C1Nc2ccccc2C1=O [Indirubin derivative, 20] | – | < 5.00 | < 5.00 | < 5.00
CN(C)S(=O)(=O)c1ccc2c(c1)C(=C1Nc3ccccc3C1=O)C(=O)N2 [Indirubin derivative, 8] | 7.40 | – | – | –
CN(C)S(=O)(=O)c1ccc2c(c1)C(C1=Nc3ccccc3C1(C)O)C(=O)N2 (stereo unspecified) [Indirubin derivative, 27b] | 7.15 and 6.22 | – | – | –
O=C(O)CCNS(=O)(=O)c1ccc2c(c1)C(=C1Nc3ccccc3C1=O)C(=O)N2 [Indirubin derivative, 34] | 5.82 | – | – | –
CC1(O)C(C2C(=O)Nc3ccc(S(=O)(=O)N4CCC(O)CC4)cc32)=Nc2ccccc21 (stereo unspecified) [Indirubin derivative, 37] | 5.80 | – | – | –
CN(C)CCN(C)S(=O)(=O)c1ccc2c(c1)C(c1[nH]c3ccccc3c1N=O)C(=O)N2 (stereo unspecified) [Indirubin derivative, 23] | 7.40 | – | – | –
CN(C)CCN(C)S(=O)(=O)c1ccc2c(c1)/C(=C1/Nc3ccccc3/C1=N\OCCO[C@@H]1O[C@H](CO)[C@@H](O)[C@H](O)[C@H]1O)C(=O)N2 [Indirubin derivative, 25] | 7.05 | – | – | –
CN(C)CCN(C)S(=O)(=O)c1ccc2c(c1)C(C1=Nc3ccccc3C1(C)O)C(=O)N2 (stereo unspecified) [Indirubin derivative, 28b] | – | < 5.00 | < 5.00 | < 5.00
CN(C)C1CCN(S(=O)(=O)c2ccc3c(c2)C(=C2Nc4ccccc4C2=O)C(=O)N3)CC1 [Indirubin derivative, 36 (X=O)] | 7.70 | – | – | –
C=CCC1(O)C(C2C(=O)Nc3ccc(S(=O)(=O)N(C)CCN(C)C)cc32)=Nc2ccccc21 (stereo unspecified) [Indirubin derivative, 30b] | – | < 5.00 | < 5.00 | < 5.00
O=C1Nc2ccc(S(=O)(=O)NCCO)cc2C1=C1Nc2ccccc2C1=O [Indirubin derivative, 33] | 7.10 | – | – | –
O=C1Nc2ccccc2/C1=C1/Nc2ccccc2C1=O [2-[(3Z)-2-oxo-2,3-dihydro-1H-indol-3-ylidene]-2,3-dihydro-1H-indol-3-one] | 5.70 | – | – | –
CN(C[C@H](O)[C@@H](O)[C@H](O)[C@H](O)CO)S(=O)(=O)c1ccc2c(c1)C(=C1Nc3ccccc3C1=O)C(=O)N2 [Indirubin derivative, 35] | 6.35 | – | – | –
CN(C)CCN(C)S(=O)(=O)c1ccc2c(c1)C(=C1Nc3ccccc3C1=O)C(=O)N2 [Indirubin derivative, 22] | 8.00 | – | – | –
CC1(O)C(C2C(=O)Nc3ccc(Br)cc32)=Nc2ccccc21 (stereo unspecified) [Indirubin derivative, 26] | 5.52 | – | – | –
CN(C)S(=O)(=O)c1ccc2c(c1)/C(=C1/Nc3ccccc3/C1=N\OCCO[C@@H]1O[C@H](CO)[C@@H](O)[C@H](O)[C@H]1O)C(=O)N2 [Indirubin derivative, 36 (X=NO)] | 7.10 | – | – | –
O=C1Nc2ccc(Br)cc2C1=C1Nc2ccccc2C1=O | – | < 5.00 | < 5.00 | < 5.00
